Laboratory results taken from ChEMBL document CHEMBL6115007, “Synthesis and in vitro and in vivo evaluation of novel bivalent quinolines as antitumor agents via targeting autophagy in cervical cancer” (Eur J Med Chem, 2025).
The source made the active and inactive calls. The rule behind the calls is not given here.

Columns and labels:
BGC-823 = test: Antiproliferative activity against human BGC-823 cells assessed as reduction in cell optical density incubated for 48 hrs by MTT assay; format: functional, cell-based; conditions: BGC-823, 48 h
HeLa [1] = test: Antiproliferative activity against human HeLa cells assessed as reduction in cell optical density incubated for 48 hrs by MTT assay; format: functional, cell-based
MCF7 = test: Antiproliferative activity against human MCF7 cells assessed as reduction in cell optical density incubated for 48 hrs by MTT assay; format: functional, cell-based; conditions: MCF7, 48 h
HeLa [2] = test: Antiproliferative activity against human HeLa cells assessed as inhibition of cell growth at 0.4 to 1.6 uM by CCK8 assay; format: functional, cell-based; conditions: dose 0.4-1.6 µM, time 6.0 day
SiHa [3] = test: Inhibition of colony formation in human SiHa cells assessed as reduction in colony forming unit count at 0.1 to 0.4 uM incubated for 24 hrs by crystal violet staining based analysis; format: functional, cell-based; conditions: dose 0.1-0.4 µM
C-33-A = test: Induction of morphological changes in human C-33-A cells assessed as decrease in cell adherence to culture dish at 0.3 to 1.2 uM by microphotographic analysis; format: functional, cell-based; conditions: dose 0.3-1.2 µM
SiHa [4] = test: Induction of morphological changes in human SiHa cells assessed as increase in appearance of round cells at 0.5 to 2 uM by microphotographic analysis; format: functional, cell-based; conditions: dose 0.5-2 µM
SiHa [5] = test: Induction of morphological changes in human SiHa cells assessed as decrease in cell adherence to culture dish at 0.5 to 2 uM by microphotographic analysis; format: functional, cell-based; conditions: dose 0.5-2 µM
HeLa [6] = test: Induction of apoptosis in human HeLa cells assessed as viable cells at 0.6 uM preincubated with Z-VAD-FMK for 1 hrs followed by compound addition and measured after 24 hrs by Annexin V-FITC/PI staining based flow cytometric analysis (reference value: 95.8 %); format: functional; conditions: read-out: Activity
HeLa [7] = test: Induction of apoptosis in human HeLa cells assessed as necrotic cells at 0.6 uM preincubated with Z-VAD-FMK for 1 hrs followed by compound addition and measured after 24 hrs by Annexin V-FITC/PI staining based flow cytometric analysis (reference value: 2.16 %); format: functional
HeLa [8] = test: Induction of apoptosis in human HeLa cells assessed as viable cells at 1.2 uM preincubated with Z-VAD-FMK for 1 hrs followed by compound addition and measured after 24 hrs by Annexin V-FITC/PI staining based flow cytometric analysis (reference value: 95.8 %); format: functional; conditions: read-out: Activity
HeLa [9] = test: Induction of apoptosis in human HeLa cells assessed as late apoptotic cells at 1.2 uM preincubated with Z-VAD-FMK for 1 hrs followed by compound addition and measured after 24 hrs by Annexin V-FITC/PI staining based flow cytometric analysis (reference value: 1.02 %); format: functional
Ca-Ski [10] = test: Induction of apoptosis in human Ca Ski cells assessed as early apoptotic cells at 0.5 uM incubated for 24 hrs by Annexin V-FITC/PI staining based flow cytometric analysis (reference value: 4.76 %); format: functional
Ca-Ski [11] = test: Induction of apoptosis in human Ca Ski cells assessed as necrotic cells at 0.5 uM incubated for 24 hrs by Annexin V-FITC/PI staining based flow cytometric analysis (reference value: 3.15 %); format: functional
Ca-Ski [12] = test: Induction of apoptosis in human Ca Ski cells assessed as viable cells at 1 uM incubated for 24 hrs by Annexin V-FITC/PI staining based flow cytometric analysis (reference value: 86.8 %); format: functional; conditions: read-out: Activity
Ca-Ski [13] = test: Induction of apoptosis in human Ca Ski cells assessed as necrotic cells at 1 uM preincubated with Z-VAD-FMK for 1 hrs followed by compound addition and measured after 24 hrs by Annexin V-FITC/PI staining based flow cytometric analysis (reference value: 1.54 %); format: functional
Ca-Ski [14] = test: Effect on cleaved PARP expression level in human Ca Ski cells at 0.25 to 1 uM incubated for 24 hrs by Western blot analysis; format: functional, cell-based; conditions: dose 0.25-1 µM
HeLa [15] = test: Effect on caspase 3 expression level in p53 deficient human HeLa cells at 0.6 to 1.2 uM incubated for 24 hrs by Western blot analysis; format: functional, cell-based; conditions: dose 0.6-1.2 µM
HeLa [16] = test: Effect on PARP expression level in Bax deficient human HeLa cells at 0.6 to 1.2 uM incubated for 24 hrs by Western blot analysis; format: functional, cell-based; conditions: dose 0.6-1.2 µM
HeLa [17] = test: Effect on cleaved PARP expression level in Bax deficient human HeLa cells at 0.6 to 1.2 uM incubated for 24 hrs by Western blot analysis; format: functional, cell-based; conditions: dose 0.6-1.2 µM
HeLa [18] = test: Effect on caspase 3 expression level in Bax deficient human HeLa cells at 0.6 to 1.2 uM incubated for 24 hrs by Western blot analysis; format: functional, cell-based; conditions: dose 0.6-1.2 µM
Ca-Ski [19] = test: Effect on PARP expression level in p53 deficient human Ca Ski cells at 0.5 to 1 uM incubated for 24 hrs by Western blot analysis; format: functional, cell-based; conditions: dose 0.5-1 µM
Ca-Ski [20] = test: Effect on TRFC protein expression level in human Ca Ski cells at 0.5 uM incubated for 24 hrs by Western blot analysis; format: functional, cell-based
Ca-Ski [21] = test: Effect on GPX4 protein expression level in human Ca Ski cells at 0.5 uM incubated for 24 hrs by Western blot analysis; format: functional, cell-based
HeLa [22] = test: Induction of autophagy in human HeLa cells assessed as increase in p62 level at 0.3 to 1.2 microM incubated for 24 hrs by Western blot analysis; format: functional, cell-based; conditions: dose 0.3-1.2 µM
HeLa [23] = test: Effect on apoptosis pathway related gene expression in human HeLa cells at 1.2 uM incubated for 24 hrs by GSVA enrichment analysis; format: functional, cell-based
HeLa [24] = test: Upregulation of autophagy pathway related gene expression in human HeLa cells at 1.2 uM incubated for 24 hrs by heat-map analysis; format: functional, cell-based
HeLa [25] = test: Effect on Beclin1 protein level in human HeLa cells at 0.6 to 1.2 uM incubated for 24 hrs by Western blot analysis; format: functional, cell-based; conditions: dose 0.6-1.2 µM
HeLa [26] = test: Antiproliferative activity against ATG5 deficient human HeLa cells assessed as inhibition of cell viability incubated for 24 hrs by CCK8 assay; format: functional, cell-based
HeLa [27] = test: Inhibition of colony formation in ATG7 deficient human HeLa cells at 0.15 to 0.6 uM incubated for 24 hrs by crystal violet staining based analysis; format: functional, cell-based; conditions: dose 0.15-0.6 µM
HeLa [28] = test: Antitumor activity against human HeLa cells xenografted in female BALB/c mouse assessed as reduction in tumor weight at 4 mg/kg administered every four days and measured after 26 days relative to control; format: functional; parameters: scale not given: the % may be the effect or the level left; conditions: time 26 day
[29] = Toxicity in female BALB/c mouse xenografted with human HeLa cells assessed as effect on liver at 4 to 8 mg/kg administered every four days and measured after 26 days by H and E staining based analysis; format: organism-based; conditions: in vivo, 624 h, dose 4-8 mg/kg, time 26 day
HeLa [30] = test: Induction of autophagy in human HeLa cells transfected with mRFP-GFP-LC3 plasmid assessed as decrease in GFP fluorescence at 30 uM incubated for 24 hrs by DAPI staining based fluorescence confocal microscopic analysis; format: functional, cell-based
Ca-Ski [31] = test: Induction of autophagy in human Ca Ski cells transfected with mRFP-GFP-LC3 plasmid assessed as appearance of RFP puncta clusters as aggregates in cytoplasm at 25 uM incubated for 24 hrs by DAPI staining based fluorescence confocal microscopic analysis; format: functional, cell-based

COc1cccc(Nc2ccnc3cc(OCCCCCOc4ccc5c(Nc6cccc(OC)c6)ccnc5c4)ccc23)c1
IC50 (BGC-823): 4.06 µM | IC50 (HeLa [1]): 3.71 µM | IC50 (MCF7): 3.08 µM | Activity (HeLa [2]): Time-dependent-effect | inhibition (SiHa [3]): Active | Activity (C-33-A): Active | Activity (SiHa [4]): Active | Activity (SiHa [5]): Active | viability at 0.6 µM (HeLa [6]): 94.9% | Activity (HeLa [7]): 1.01% | viability at 1.2 µM (HeLa [8]): 93.6% | Activity (HeLa [9]): 3.71% | Activity (Ca-Ski [10]): 8.01% | Activity (Ca-Ski [11]): 0.64% | viability at 1 µM (Ca-Ski [12]): 82% | Activity (Ca-Ski [13]): 1.7% | Activity (Ca-Ski [14]): inactive | Activity (HeLa [15]): inactive | Activity (HeLa [16]): inactive | Activity (HeLa [17]): inactive | Activity (HeLa [18]): inactive | Activity (Ca-Ski [19]): inactive | Activity (Ca-Ski [20]): inactive | Activity (Ca-Ski [21]): Moderate_effect | Activity (HeLa [22]): Active | Activity (HeLa [23]): Minimal_effect | Activity (HeLa [24]): Active | Activity (HeLa [25]): inactive | IC50 (HeLa [26]): 1.63 µM | inhibition (HeLa [27]): Minimal_effect | Activity (HeLa [28]): 46.27% | Activity [29]: Non-toxic | Activity (HeLa [30]): Active | Activity (Ca-Ski [31]): Active
